Measurements taken from ChEMBL document CHEMBL5537193, “Multitargeting HDAC Inhibitors Containing a RAS/RAF Protein Interfering Unit” (J Med Chem, 2024).
Active and inactive are the calls of the source. The calls are words filed in the database; no cut-off is given here.

How the values were obtained:
[1] = tested on: PANC-1; experiment: Effect on RAS protein expression in human PANC-1 cells at 2 uM incubated for 24 hrs by Western blot analysis; assay type: functional, cell-based
[2] = tested on: Mus musculus; experiment: In vivo inhibition of HDAC3 in BALB/c mouse xenografted with human HT-29 cells assessed as induction of alpha-tubulin acetylation administered intraperitoneally once every 2 days for 12 times and measured after 24 days by Western blot analysis; assay type: functional; settings: dose 7.5-15 mg/kg, route ip, time 24.0 day
[3] = tested on: A-431; experiment: cells; settings: Homo sapiens, A-431, 72 h
Description: Cytotoxicity against human A-431 cells assessed as inhibition of cell growth incubated for 72 hrs by MTT assay

[4] = tested on: HT-29; experiment: Effect on Histone H3 expression in tumor of BALB/c mouse xenografted with human HT-29 cells at 7.5 to 15 mg/kg, ip administered once every 2 days for 12 times and measured after 24 days by Western blot analysis; assay type: functional, organism-based; settings: Neoplasm, dose 7.5-15 mg/kg, time 24.0 day
[5] = tested on: PANC-1; experiment: Induction of apoptosis in human PANC-1 cells assessed as increase in cleaved caspase-3 expression level at 2 uM incubated for 24 hrs by Western blot analysis; assay type: functional, cell-based
[6] = tested on: HT-29; experiment: Cell cycle arrest in human HT-29 cells assessed as accumulation of cells at G2-M phase at 2 uM incubated for 24 hrs by PI/RNase staining based flow cytometric analysis; assay type: functional
[7] = Cmax in Sprague-Dawley rat at 15 mg/kg, ip measured after 24 hrs by LC-MS/MS analysis; assay type: ADME, organism-based; settings: in vivo
[8] = Metabolic stability in human liver microsomes assessed as half-life at 1 uM measured upto 40 mins by LC-MS/MS analysis; assay type: ADME, Microsome
[9] = Toxicity in BALB/c nude mouse xenografted with human HT-29 cells assessed as change in main organs at 7.5 to 15 mg/kg, ip administered once every 2 days for 12 times for 24 days by H&E staining based analysis; assay type: organism-based; settings: in vivo, 576 h, dose 7.5-15 mg/kg, time 24 day
[10] = tested on: HT-29; experiment: Inhibition of MAPK signaling pathway in human HT-29 cells assessed as inhibition of C-RAF phosphorylation at Ser338 residue at 2 uM incubated for 24 hrs by Western blot analysis; assay type: cell-based
[11] = tested on: HT-29; experiment: Inhibition of MAPK signaling pathway in human HT-29 cells assessed as inhibition of ERK1/2 phosphorylation at 2 uM incubated for 24 hrs by Western blot analysis; assay type: cell-based
[12] = Toxicity in BALB/c nude mouse xenografted with human HT-29 cells assessed as change in body weight at 7.5 to 15 mg/kg, ip administered once every 2 days for 12 times for 24 days; assay type: organism-based; settings: in vivo, 576 h, dose 7.5-15 mg/kg, time 24 day
[13] = tested on: HT-29; experiment: Induction of apoptosis in human HT-29 cells incubated for 24 hrs by flow cytometric analysis; assay type: functional, cell-based; settings: dose 1-4 µM
[14] = tested on: PANC-1; experiment: Inhibition of MAPK signaling pathway in human PANC-1 cells assessed as inhibition of ERK1/2 phosphorylation at 2 uM incubated for 24 hrs by Western blot analysis; assay type: cell-based
[15] = tested on: PANC-1; experiment: Effect on MEK protein expression in human PANC-1 cells at 2 uM incubated for 24 hrs by Western blot analysis; assay type: functional, cell-based
[16] = biological target: Histone deacetylase 9 (Homo sapiens, UniProt Q9UKV0); experiment: Inhibition of HDAC9 (unknown origin)
Histone deacetylase 9, sequence (Q9UKV0 whole entry): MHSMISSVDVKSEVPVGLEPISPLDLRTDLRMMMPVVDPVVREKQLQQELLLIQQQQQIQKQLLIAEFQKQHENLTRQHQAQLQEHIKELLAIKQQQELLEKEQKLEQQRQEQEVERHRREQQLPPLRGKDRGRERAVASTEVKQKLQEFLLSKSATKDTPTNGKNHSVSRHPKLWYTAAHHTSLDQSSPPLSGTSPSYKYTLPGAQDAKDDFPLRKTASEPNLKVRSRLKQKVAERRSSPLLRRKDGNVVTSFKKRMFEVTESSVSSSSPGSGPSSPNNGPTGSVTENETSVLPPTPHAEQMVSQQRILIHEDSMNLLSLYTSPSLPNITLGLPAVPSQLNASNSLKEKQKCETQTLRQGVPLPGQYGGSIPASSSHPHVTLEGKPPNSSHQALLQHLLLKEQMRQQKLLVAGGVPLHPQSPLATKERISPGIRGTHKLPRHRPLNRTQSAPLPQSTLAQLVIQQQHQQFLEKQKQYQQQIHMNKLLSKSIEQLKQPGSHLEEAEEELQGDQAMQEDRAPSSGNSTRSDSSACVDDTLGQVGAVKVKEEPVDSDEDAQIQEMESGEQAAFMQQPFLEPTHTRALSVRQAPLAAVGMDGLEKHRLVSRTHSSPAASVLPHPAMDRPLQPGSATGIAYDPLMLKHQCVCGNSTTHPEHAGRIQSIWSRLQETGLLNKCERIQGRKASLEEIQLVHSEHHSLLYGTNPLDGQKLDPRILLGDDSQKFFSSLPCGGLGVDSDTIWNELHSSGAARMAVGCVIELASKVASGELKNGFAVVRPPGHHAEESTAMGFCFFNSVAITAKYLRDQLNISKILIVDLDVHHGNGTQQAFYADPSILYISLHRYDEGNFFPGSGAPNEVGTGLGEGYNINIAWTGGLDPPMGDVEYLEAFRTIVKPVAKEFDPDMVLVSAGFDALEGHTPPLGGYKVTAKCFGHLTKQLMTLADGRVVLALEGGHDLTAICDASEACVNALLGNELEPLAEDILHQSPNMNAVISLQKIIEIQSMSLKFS

[17] = Metabolic stability in mouse liver microsomes assessed as intrinsic clearance at 1 uM measured upto 40 mins by LC-MS/MS analysis; assay type: ADME, Microsome; settings: read-out: CLH
[18] = Tmax in Sprague-Dawley rat at 15 mg/kg, ip measured after 24 hrs by LC-MS/MS analysis; assay type: ADME, organism-based; settings: in vivo
[19] = tested on: HT-29; experiment: Effect on ERK1/2 expression in tumor of BALB/c mouse xenografted with human HT-29 cells at 7.5 to 15 mg/kg, ip administered once every 2 days for 12 times and measured after 24 days by Western blot analysis; assay type: functional, organism-based; settings: Neoplasm, dose 7.5-15 mg/kg, time 24.0 day
[20] = biological target: Serine/threonine-protein kinase PLK1 (Homo sapiens, UniProt P53350); experiment: Inhibition of PLK1 (unknown origin)
Serine/threonine-protein kinase PLK1, sequence (P53350 whole entry): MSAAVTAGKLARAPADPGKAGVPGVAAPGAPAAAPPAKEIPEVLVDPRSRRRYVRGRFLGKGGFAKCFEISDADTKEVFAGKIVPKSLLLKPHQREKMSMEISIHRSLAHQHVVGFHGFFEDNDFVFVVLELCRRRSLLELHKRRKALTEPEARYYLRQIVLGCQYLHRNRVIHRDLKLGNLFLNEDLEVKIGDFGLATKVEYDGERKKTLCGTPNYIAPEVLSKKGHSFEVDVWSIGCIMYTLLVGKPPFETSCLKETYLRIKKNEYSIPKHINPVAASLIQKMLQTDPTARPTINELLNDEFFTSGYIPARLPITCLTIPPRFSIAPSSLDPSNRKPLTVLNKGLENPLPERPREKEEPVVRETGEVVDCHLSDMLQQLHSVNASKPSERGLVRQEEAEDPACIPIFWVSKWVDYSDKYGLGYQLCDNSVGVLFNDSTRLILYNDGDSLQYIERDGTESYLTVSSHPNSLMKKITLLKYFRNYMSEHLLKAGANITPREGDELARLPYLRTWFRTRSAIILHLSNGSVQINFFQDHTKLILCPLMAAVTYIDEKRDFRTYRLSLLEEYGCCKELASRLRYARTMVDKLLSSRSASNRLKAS

[21] = tested on: Mus musculus; experiment: In vivo inhibition of HDAC3 in BALB/c mouse xenografted with human HT-29 cells assessed as induction of histone H3 acetylation administered intraperitoneally once every 2 days for 12 times and measured after 24 days by Western blot analysis; assay type: functional; settings: dose 7.5-15 mg/kg, route ip, time 24.0 day
[22] = Toxicity in BALB/c nude mouse xenografted with human HT-29 cells assessed as change in body weight at 7.5 to 15 mg/kg, ip administered once daily for 24 days; assay type: organism-based; settings: in vivo, 576 h, dose 7.5-15 mg/kg, time 24 day
[23] = tested on: Mus musculus; experiment: In vivo inhibition of MAPK signaling pathway in BALB/c mouse xenografted with human HT-29 cells assessed as inhibition of ERK1/2 phosphorylation administered intraperitoneally once every 2 days for 12 times and measured after 24 days by Western blot analysis; assay type: functional; settings: dose 7.5-15 mg/kg, route ip, time 24.0 day
[24] = tested on: Mus musculus; experiment: In vivo inhibition of MAPK signaling pathway in BALB/c mouse xenografted with human HT-29 cells assessed as inhibition of c-RAF phosphorylation at Ser338 residue administered intraperitoneally once every 2 days for 12 times and measured after 24 days by Western blot analysis; assay type: functional; settings: dose 7.5-15 mg/kg, route ip, time 24.0 day
[25] = Elimination rate constant in Sprague-Dawley rat at 15 mg/kg, ip measured after 24 hrs by LC-MS/MS analysis; assay type: ADME, organism-based; settings: in vivo
[26] = tested on: HT-29; experiment: Antitumor activity against human HT-29 cells xenografted in BALB/c nude mouse assessed as tumor growth inhibition administered intraperitoneally once a day for 24 days; assay type: functional, cell-based; settings: route ip, time 24.0 day
[27] = tested on: SGC-7901; experiment: cells; settings: Homo sapiens, SGC-7901, 72 h
Description: Cytotoxicity against human SGC-7901 cells assessed as inhibition of cell growth incubated for 72 hrs by MTT assay

[28] = tested on: PANC-1; experiment: Induction of apoptosis in human PANC-1 cells incubated for 24 hrs by flow cytometric analysis; assay type: functional, cell-based; settings: dose 1-4 µM
[29] = tested on: PANC-1; experiment: Induction of apoptosis in human PANC-1 cells assessed as increase in cleaved caspase-9 expression level at 2 uM incubated for 24 hrs by Western blot analysis; assay type: functional, cell-based
[30] = Metabolic stability in human liver microsomes assessed as intrinsic clearance at 1 uM measured upto 40 mins by LC-MS/MS analysis; assay type: ADME, Microsome; settings: read-out: CLH
[31] = tested on: Mus musculus; experiment: In vivo inhibition of MAPK signaling pathway in BALB/c mouse xenografted with human HT-29 cells assessed as inhibition of MEK phosphorylation administered intraperitoneally once every 2 days for 12 times and measured after 24 days by Western blot analysis; assay type: functional; settings: dose 7.5-15 mg/kg, route ip, time 24.0 day
[32] = Metabolic stability in rat liver microsomes assessed as intrinsic clearance at 1 uM measured upto 40 mins by LC-MS/MS analysis; assay type: ADME, Microsome; settings: read-out: CLH
[33] = tested on: PANC-1; experiment: Induction of apoptosis in human PANC-1 cells assessed as apoptotic cells at 2 uM incubated for 24 hrs by flow cytometric analysis relative to control; assay type: functional
[34] = AUC (0 to infinity) in Sprague-Dawley rat at 15 mg/kg, ip measured after 24 hrs by LC-MS/MS analysis; assay type: ADME, organism-based; settings: in vivo
[35] = tested on: MV4-11; experiment: cells; settings: Homo sapiens, MV4-11, 72 h
Description: Cytotoxicity against human MV4-11 cells assessed as inhibition of cell growth incubated for 72 hrs by MTT assay

[36] = tested on: HT-29; experiment: Effect on MEK expression in tumor of BALB/c mouse xenografted with human HT-29 cells at 7.5 to 15 mg/kg, ip administered once every 2 days for 12 times and measured after 24 days by Western blot analysis; assay type: functional, organism-based; settings: Neoplasm, dose 7.5-15 mg/kg, time 24.0 day
[37] = MRT (0 to infinity) in Sprague-Dawley rat at 15 mg/kg, ip measured after 24 hrs by LC-MS/MS analysis; assay type: ADME, organism-based; settings: in vivo

IC50 [3]: 0.55 µM
Cmax [7]: 2.8 µg/mL
half-life at 1 µM [8]: 2.07 h
IC50 [16]: 0.0837 µM
CLint scaled at 1 µM [17]: 11.5 L/h/kg
Tmax [18]: 0.5 h
IC50 [20]: 0.0178 µM
inhibition [20]: Dose-Dependent Effect
k el at 24 h [25]: 0.000252 s⁻¹
IC50 [27]: 0.17 µM
CLint scaled at 1 µM [30]: 0.839 L/h/kg
CLint scaled at 1 µM [32]: 27 L/h/kg
AUC(0-inf) [34]: 5.2 µg·h/mL
IC50 [35]: 0.08 µM
MRT inf [37]: 1.34 h
Structure (SMILES): COc1cc(OC)c(/C=C/S(=O)(=O)Cc2ccc(OC)c(NCC(=O)NO)c2)c(OC)c1
Activity [1]: inactive
inhibition [2]: Dose-Dependent Effect
Activity [4]: inactive
Activity [5]: Active
Activity [6]: Active
Activity [9]: Non-Toxic
inhibition [10]: Active
inhibition [11]: Active
Activity [12]: Non-Toxic
Activity [13]: Dose-Dependent Effect
inhibition [14]: Active
Activity [15]: inactive
Activity [19]: inactive
inhibition [21]: Dose-Dependent Effect
Activity [22]: Non-Toxic
inhibition [23]: Dose-Dependent Effect
inhibition [24]: Dose-Dependent Effect
TGI [26]: Dose-Dependent Effect
Activity [28]: Dose-Dependent Effect
Activity [29]: Active
inhibition [31]: Dose-Dependent Effect
Activity [33]: 57.4%
Activity [36]: inactive
